Source: US10358446B2, “Bruton's tyrosine kinase inhibitors” (Zibo Biopolar Changsheng Pharmaceutical Co. Ltd., priority 2015, dated 2019)

Target: BTK (Homo sapiens (Human), UniProt Q06187)
Experiment: Btk kinase assay (HTRF)
Format: biochemical
Conditions: [ATP]=80 μM, BTK=3.4 nM; read-out: BTK Inhibition
Outline: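 HTRF kinase read-out (665/615 nm ratio, excitation 330 nm) after EDTA quench and 1 h detection incubation. Reaction: 3.4 nM BTK, ATP 80 μM, peptide substrate 1 μM, compound, HEPES pH 7.0 buffer, 1 h; IC50 derived using uninhibited and enzyme-free controls.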

Sequence of BTK (Q06187 whole entry, species assumed): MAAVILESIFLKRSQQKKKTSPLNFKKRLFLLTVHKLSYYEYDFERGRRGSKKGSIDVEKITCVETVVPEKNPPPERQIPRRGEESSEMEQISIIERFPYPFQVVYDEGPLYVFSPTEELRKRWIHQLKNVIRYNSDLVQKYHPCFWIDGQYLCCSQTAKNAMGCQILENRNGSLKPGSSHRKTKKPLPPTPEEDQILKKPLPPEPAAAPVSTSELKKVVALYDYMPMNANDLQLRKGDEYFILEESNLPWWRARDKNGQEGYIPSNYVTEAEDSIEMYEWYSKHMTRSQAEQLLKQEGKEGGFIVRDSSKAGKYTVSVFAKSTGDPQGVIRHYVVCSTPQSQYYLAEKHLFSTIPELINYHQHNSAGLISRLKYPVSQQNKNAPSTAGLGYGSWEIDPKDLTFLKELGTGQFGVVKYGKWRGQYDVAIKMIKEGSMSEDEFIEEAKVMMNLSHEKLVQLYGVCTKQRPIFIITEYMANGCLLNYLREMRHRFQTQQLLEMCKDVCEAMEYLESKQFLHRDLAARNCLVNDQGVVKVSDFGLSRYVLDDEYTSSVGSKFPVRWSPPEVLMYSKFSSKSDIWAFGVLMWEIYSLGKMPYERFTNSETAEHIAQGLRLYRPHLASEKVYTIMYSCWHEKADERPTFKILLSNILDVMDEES

Question: How did the IC50 turn out when `C=CC(=O)N1CCC[C@@H](n2c(=O)n(-c3ccc(Oc4ccccc4)cc3)c3ccncc32)C1` [Example 122, (R)-3-(1-acryloylpiperidin-3-yl)-1-(4-phenoxyphenyl)-1H-imidazo[4,5-c]pyridin-2(3H)-one] was run?
Answer: 1000 to 10000 nM

Question: For `C=CC(=O)Nc1cccc(-n2c(=O)n(-c3ccc(Oc4ccc(C(F)(F)F)cc4)cc3)c3cnccc32)c1` [Example 123, N-(3-(2-oxo-3-(4-(4-(trifluoromethyl)phenoxy)phenyl)-2,3-dihydro-1H-imidazo[4,5-c]pyridin-1-yl)phenyl)acrylamide], which IC50 is on record?
Answer: ≥ 10000 nM

Question: For `C=CC(=O)Nc1cccc(-n2c(=O)n(-c3ccc(Oc4cccc(F)c4F)cc3)c3cnccc32)c1` [Example 125, N-(3-(3-(4-(2,3-difluorophenoxy)phenyl)-2-oxo-2,3-dihydro-1H-imidazo[4,5-c]pyridin-1-yl)phenyl)acrylamide], which IC50 is on record?
Answer: 10 to 100 nM

Question: How did the IC50 turn out when `C=CC(=O)Nc1cccc(-n2c(=O)n(-c3ccc(Oc4ccc(F)c(F)c4)cc3)c3cnccc32)c1` [Example 126, N-(3-(3-(4-(3,4-difluorophenoxy)phenyl)-2-oxo-2,3-dihydro-1H-imidazo[4,5-c]pyridin-1-yl)phenyl)acrylamide] was run?
Answer: 100 to 1000 nM

Question: For `C=CC(=O)Nc1cccc(-n2c(=O)n(-c3ccc(Oc4cc(F)cc(F)c4)cc3)c3cnccc32)c1` [Example 127, N-(3-(3-(4-(3,5-difluorophenoxy)phenyl)-2-oxo-2,3-dihydro-1H-imidazo[4,5-c]pyridin-1-yl)phenyl)acrylamide], which IC50 is on record?
Answer: 100 to 1000 nM

Question: For `C=CC(=O)Nc1cccc(-n2c(=O)n(-c3ccc(Oc4cc(F)cc(Cl)c4)cc3)c3cnccc32)c1` [Example 129, N-(3-(3-(4-(3-chloro-5-fluorophenoxy)phenyl)-2-oxo-2,3-dihydro-1H-imidazo[4,5-c]pyridin-1-yl)phenyl)acrylamide], which IC50 is on record?
Answer: 100 to 1000 nM

Question: Which IC50 does the source give for `C=CC(=O)Nc1cccc(-n2c(=O)n(-c3ccc(Oc4cc(Cl)cc(Cl)c4)cc3)c3cnccc32)c1` [Example 130, N-(3-(3-(4-(3,5-dichlorophenoxy)phenyl)-2-oxo-2,3-dihydro-1H-imidazo[4,5-c]pyridin-1-yl)phenyl)acrylamide] here?
Answer: 100 to 1000 nM

Question: `C=CC(=O)Nc1cccc(-n2c(=O)n(-c3ccc(Oc4ccc(OC)c(OC)c4)cc3)c3cnccc32)c1` [Example 131, N-(3-(3-(4-(3,4-dimethoxyphenoxy)phenyl)-2-oxo-2,3-dihydro-1H-imidazo[4,5-c]pyridin-1-yl)phenyl)acrylamide] was tested. Which IC50 did it give?
Answer: 10 to 100 nM

Question: `C=CC(=O)N1CCC[C@@H](n2c(=O)n(-c3ccc(Oc4cccc(Cl)c4C)cc3)c3cnccc32)C1` [Example 134, (R)-1-(1-acryloylpiperidin-3-yl)-3-(4-(3-chloro-2-methylphenoxy)phenyl)-1H-imidazo[4,5-c]pyridin-2(3H)-one] was tested. Which IC50 did it give?
Answer: 10 to 100 nM

Question: With `C=CC(=O)N1CC[C@@H](n2c(=O)n(-c3ccc(Oc4cccc(OC)c4Cl)cc3)c3cnccc32)C1` [Example 135, (R)-1-(1-acryloylpyrrolidin-3-yl)-3-(4-(2-chloro-3-methoxyphenoxy)phenyl)-1H-imidazo[4,5-c]pyridin-2(3H)-one] as the molecule, how does the IC50 read?
Answer: 10 to 100 nM

Question: Which IC50 does the source give for `C=CC(=O)Nc1cccc(-n2c(=O)n(-c3ccc(Oc4cccc(F)c4OC)cc3)c3cnccc32)c1` [Example 136, N-(3-(3-(4-(3-fluoro-2-methoxyphenoxy)phenyl)-2-oxo-2,3-dihydro-1H-imidazo[4,5-c]pyridin-1-yl)phenyl)acrylamide] here?
Answer: 10 to 100 nM

Question: `C=CC(=O)N1CC[C@@H](n2c(=O)n(-c3ccc(Oc4cccc(F)c4OC)cc3)c3cnccc32)C1` [Example 137, (R)-1-(1-acryloylpyrrolidin-3-yl)-3-(4-(3-fluoro-2-methoxyphenoxy)phenyl)-1H-imidazo[4,5-c]pyridin-2(3H)-one] was tested. Which IC50 did it give?
Answer: 100 to 1000 nM

Question: For `C=CC(=O)N1CC[C@@H](n2c(=O)n(-c3ccc(Oc4cccc(Cl)c4C)cc3)c3cnccc32)C1` [Example 139, (R)-1-(1-acryloylpyrrolidin-3-yl)-3-(4-(3-chloro-2-methylphenoxy)phenyl)-1H-imidazo[4,5-c]pyridin-2(3H)-one], which IC50 is on record?
Answer: 10 to 100 nM

Question: For `C=CC(=O)N1CCC[C@@H](n2c(=O)n(-c3ccc(Oc4cccc(F)c4OC)cc3)c3cnccc32)C1` [Example 140, (R)-1-(1-acryloylpiperidin-3-yl)-3-(4-(3-fluoro-2-methoxyphenoxy)phenyl)-1H-imidazo[4,5-c]pyridin-2(3H)-one], which IC50 is on record?
Answer: 100 to 1000 nM

Question: With `C=CC(=O)N1CCC[C@@H](n2c(=O)n(-c3ccc(Oc4cccc(C)c4F)cc3)c3cnccc32)C1` [Example 141, (R)-1-(1-acryloylpiperidin-3-yl)-3-(4-(2-fluoro-3-methylphenoxy)phenyl)-1H-imidazo[4,5-c]pyridin-2(3H)-one] as the molecule, how does the IC50 read?
Answer: 10 to 100 nM

Question: How did the IC50 turn out when `C=CC(=O)N1CCC[C@@H](n2c(=O)n(-c3ccc(Oc4cccc(OC)c4C)cc3)c3cnccc32)C1` [Example 142, (R)-1-(1-acryloylpiperidin-3-yl)-3-(4-(3-methoxy-2-methylphenoxy)phenyl)-1H-imidazo[4,5-c]pyridin-2(3H)-one] was run?
Answer: 10 to 100 nM

Question: `C=CC(=O)N1CC[C@@H](n2c(=O)n(-c3ccc(Oc4cccc(OC)c4C)cc3)c3cnccc32)C1` [Example 143, (R)-1-(1-acryloylpyrrolidin-3-yl)-3-(4-(3-methoxy-2-methylphenoxy)phenyl)-1H-imidazo[4,5-c]pyridin-2(3H)-one] was tested. Which IC50 did it give?
Answer: 10 to 100 nM

Question: `C=CC(=O)Nc1cccc(-n2c(=O)n(-c3ccc(Oc4cccc(C)c4)c(Cl)c3)c3cnccc32)c1` [Example 144, N-(3-(3-(3-chloro-4-(m-tolyloxy)phenyl)-2-oxo-2,3-dihydro-1H-imidazo[4,5-c]pyridin-1-yl)phenyl)acrylamide] was tested. Which IC50 did it give?
Answer: 10 to 100 nM

Question: `C=CC(=O)Nc1cccc(-n2c(=O)n(-c3ccc(Oc4cccc(OC(C)C)c4)c(Cl)c3)c3cnccc32)c1` [Example 145, N-(3-(3-(3-chloro-4-(3-isopropoxyphenoxy)phenyl)-2-oxo-2,3-dihydro-1H-imidazo[4,5-c]pyridin-1-yl)phenyl)acrylamide] was tested. Which IC50 did it give?
Answer: 100 to 1000 nM

Question: `C=CC(=O)Nc1cccc(-n2c(=O)n(-c3ccc(Oc4cccc(F)c4)c(C)c3)c3cnccc32)c1` [Example 146, N-(3-(3-(4-(3-fluorophenoxy)-3-methylphenyl)-2-oxo-2,3-dihydro-1H-imidazo[4,5-c]pyridin-1-yl)phenyl)acrylamide] was tested. Which IC50 did it give?
Answer: 10 to 100 nM

Question: Which IC50 does the source give for `C=CC(=O)Nc1cccc(-n2c(=O)n(-c3ccc(Oc4cccc(C)c4C)cc3)c3cnccc32)c1` [Example 147, N-(3-(3-(4-(2,3-dimethylphenoxy)phenyl)-2-oxo-2,3-dihydro-1H-imidazo[4,5-c]pyridin-1-yl)phenyl)acrylamide] here?
Answer: 10 to 100 nM

Question: With `C=CC(=O)Nc1cccc(-n2c(=O)n(-c3ccc(Oc4cccc(C)c4C)c(Cl)c3)c3cnccc32)c1` [Example 148, N-(3-(3-(3-chloro-4-(2,3-dimethylphenoxy)phenyl)-2-oxo-2,3-dihydro-1H-imidazo[4,5-c]pyridin-1-yl)phenyl)acrylamide] as the molecule, how does the IC50 read?
Answer: 10 to 100 nM

Question: How did the IC50 turn out when `C=CC(=O)N1CC[C@@H](n2c(=O)n(-c3ccc(Oc4cccc(Cl)c4)c(F)c3)c3cnccc32)C1` [Example 149, (R)-1-(1-acryloylpyrrolidin-3-yl)-3-(4-(3-chlorophenoxy)-3-fluorophenyl)-1H-imidazo[4,5-c]pyridin-2(3H)-one] was run?
Answer: 10 to 100 nM

Question: Which IC50 does the source give for `C=CC(=O)Nc1cccc(-n2c(=O)n(-c3ccc(Oc4cccc(Cl)c4C)cc3)c3cnccc32)c1` [Example 150, N-(3-(3-(4-(3-chloro-2-methylphenoxy)phenyl)-2-oxo-2,3-dihydro-1H-imidazo[4,5-c]pyridin-1-yl)phenyl)acrylamide] here?
Answer: 10 to 100 nM

Question: `C=CC(=O)N1CC[C@@H](n2c(=O)n(-c3ccc(Oc4ccccc4)cc3)c3cncc(Cl)c32)C1` [Example 151, (R)-1-(1-acryloylpyrrolidin-3-yl)-7-chloro-3-(4-phenoxyphenyl)-1H-imidazo[4,5-c]pyridin-2(3H)-one] was tested. Which IC50 did it give?
Answer: ≤ 10 nM

Question: With `C=CC(=O)Nc1cccc(-n2c(=O)n(-c3cccc(Oc4cccc(C)c4)c3)c3cnccc32)c1` [Example 152, N-(3-(2-oxo-3-(3-(m-tolyloxy)phenyl)-2,3-dihydro-1H-imidazo[4,5-c]pyridin-1-yl)phenyl)acrylamide] as the molecule, how does the IC50 read?
Answer: 10 to 100 nM

Question: With `C=CC(=O)N1CC[C@@H](n2c(=O)n(-c3ccc(Oc4cccc(C(C)C)c4)cc3)c3cnccc32)C1` [Example 153, (R)-1-(1-acryloylpyrrolidin-3-yl)-3-(4-(3-isopropylphenoxy)phenyl)-1H-imidazo[4,5-c]pyridin-2(3H)-one] as the molecule, how does the IC50 read?
Answer: 10 to 100 nM

Question: How did the IC50 turn out when `C=CC(=O)Nc1cccc(-n2c(=O)n(-c3ccc(Oc4cccc(Cl)c4)c(C)c3)c3cnccc32)c1` [Example 154, N-(3-(3-(4-(3-chlorophenoxy)-3-methylphenyl)-2-oxo-2,3-dihydro-1H-imidazo[4,5-c]pyridin-1-yl)phenyl)acrylamide] was run?
Answer: 1000 to 10000 nM

Question: `C=CC(=O)N1CC[C@@H](n2c(=O)n(-c3cccc(Oc4ccccc4)c3)c3cnccc32)C1` [Example 155, (R)-1-(1-acryloylpyrrolidin-3-yl)-3-(3-phenoxyphenyl)-1H-imidazo[4,5-c]pyridin-2(3H)-one] was tested. Which IC50 did it give?
Answer: 10 to 100 nM

Question: With `C=C(C)C(=O)N1CC[C@@H](n2c(=O)n(-c3cccc(Oc4ccccc4)c3)c3cnccc32)C1` [Example 156, (R)-1-(1-methacryloylpyrrolidin-3-yl)-3-(3-phenoxyphenyl)-1H-imidazo[4,5-c]pyridin-2(3H)-one] as the molecule, how does the IC50 read?
Answer: 1000 to 10000 nM

Question: How did the IC50 turn out when `C=CC(=O)Nc1cccc(-n2c(=O)n(-c3ccc(Sc4ccccc4)cc3)c3cnccc32)c1` [Example 157, N-(3-(2-oxo-3-(4-(phenylthio)phenyl)-2,3-dihydro-1H-imidazo[4,5-c]pyridin-1-yl)phenyl)acrylamide] was run?
Answer: ≤ 10 nM

Question: For `C=CC(=O)Nc1cccc(-n2c(=O)n(-c3ccc(Oc4cccc(OC)c4)cc3)c3cnccc32)c1` [Example 158, N-(3-(3-(4-(3-methoxyphenoxy)phenyl)-2-oxo-2,3-dihydro-1H-imidazo[4,5-c]pyridin-1-yl)phenyl) acrylamide], which IC50 is on record?
Answer: 10 to 100 nM
